Source: US9637469B2, “Pyridine derivative” (Teijin Pharma Limited, priority 2012, dated 2017)

Columns and labels:
[1] = biological target: T1, human URAT1 (Homo sapiens, UniProt Q96S37); assay: Test for inhibition of uric acid transport using human URAT1-expressing cells;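 note: three stars up to 0.2 µM two stars 0.2-2 µM one star 2-20 µM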; assay type: cell-based; conditions: HEK 293 cells expressing human URAT1; 14C-labeled uric acid 25 μM; uptake 37° C. for 5 min
T1 construct: Full-length cDNA of human URAT1 (hURAT1)
T1 sequence (Q96S37 1-553): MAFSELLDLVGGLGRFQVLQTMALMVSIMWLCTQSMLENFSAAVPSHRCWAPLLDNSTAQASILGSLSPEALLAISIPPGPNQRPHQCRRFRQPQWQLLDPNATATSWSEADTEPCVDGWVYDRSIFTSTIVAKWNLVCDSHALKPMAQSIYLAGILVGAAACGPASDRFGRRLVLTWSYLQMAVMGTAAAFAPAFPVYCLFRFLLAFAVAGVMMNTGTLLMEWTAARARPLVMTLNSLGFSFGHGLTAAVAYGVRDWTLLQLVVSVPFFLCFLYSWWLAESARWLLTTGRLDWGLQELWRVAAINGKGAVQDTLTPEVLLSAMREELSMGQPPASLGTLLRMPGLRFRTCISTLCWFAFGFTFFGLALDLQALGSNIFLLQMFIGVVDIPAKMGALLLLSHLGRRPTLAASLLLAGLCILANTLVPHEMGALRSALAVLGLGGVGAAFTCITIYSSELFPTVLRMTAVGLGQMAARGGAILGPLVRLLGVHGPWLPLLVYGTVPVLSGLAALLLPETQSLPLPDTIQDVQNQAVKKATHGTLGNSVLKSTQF
In short: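 HEK293 cells stably transfected with full-length hURAT1, preincubated 10 min at 37 °C in HBSS with NaCl replaced by Na gluconate. Uptake of 25 μM ¹⁴C-uric acid with compound ran 5 min at 37 °C, then scintillation counting. IC50 derived from % of DMSO-control URAT1-specific uptake.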

[2] = system: Cebus apella; assay: Test for drug efficacy in Cebus apella (uric acid excretion rate); assay type: in vivo; conditions: 3 mg/kg to 30 mg/kg in 0.5% methylcellulose into stomach via the nasal cavity, up to 24 hours
Description: A test compound (3 mg/kg to 30 mg/kg) prepared by suspending in a 0.5% methylcellulose solution was administered to Cebus apella into stomach via the nasal cavity using a disposable catheter and a syringe barrel. Blood samples were taken before administration and 30 minutes, 1 hour, 2 hours, 4 hours, 8 hours, 12 hours, and 24 hours after administration; and urine samples were collected for the time intervals of immediately to 4 hours after administration, from 4 hours to 8 hours after administration, from 8 hours to 16 hours after administration, and from 16 hours to 24 hours after administration. Concentrations of uric acid and creatinine in the blood and urine samples collected were measured by an automatic analyzer (JEOL Ltd.). Uric acid and creatine were measured using L-type Wako UA.F (Wako Pure Chemicals Industries, Ltd.) and L-type Creatine F (Wako Pure Chemicals Industries, Ltd.) respectively. Uric acid clearance was calculated from the uric acid concentrations in blood and urine and, similarly, creatinine clearance was calculated from the creatinine concentrations.

## Cc1nc(-c2cncc(Cl)c2)n(Cc2cccc3ccsc23)c1C(=O)O [Compound A233, 1-(benzo[b]thiophen-7-ylmethyl)-2-(5-chloropyridin-3-yl)-4-methyl-1H-imidazole-5-carboxylic acid]
[1]
  Inhibitory Activity (IC50 of uric acid transport inhibition): * * *
[2]
  uricosuric effect (uric acid excretion rate): excellent uricosuric effect was confirmed

## CCc1nc(-c2cccnc2)n(Cc2cc(Cl)ccc2Cl)c1C(=O)O [Compound A14, 1-(2,5-dichlorobenzyl)-4-ethyl-2-(pyridin-3-yl)-1H-imidazole-5-carboxylic acid]
[1]
  Inhibitory Activity (IC50 of uric acid transport inhibition): * * *
[2]
  uricosuric effect (uric acid excretion rate): excellent uricosuric effect was confirmed

## Cc1nc(-c2cncc(F)c2)n(Cc2cccc3ccccc23)c1C(=O)O [Compound A119, 2-(5-fluoropyridin-3-yl)-4-methyl-1-(naphthalen-1-ylmethyl)-1H-imidazole-5-carboxylic acid]
[1]
  Inhibitory Activity (IC50 of uric acid transport inhibition): * *
[2]
  uricosuric effect (uric acid excretion rate): excellent uricosuric effect was confirmed

## Cc1nc(-c2cncc(F)c2)n(Cc2cc(Cl)ccc2Cl)c1C(=O)O [Compound A134, 1-(2,5-dichlorobenzyl)-2-(5-fluoropyridin-3-yl)-4-methyl-1H-imidazole-5-carboxylic acid]
[1]
  Inhibitory Activity (IC50 of uric acid transport inhibition): * * *
[2]
  uricosuric effect (uric acid excretion rate): excellent uricosuric effect was confirmed

## CC(C)c1nc(-c2cccnc2)n(Cc2cc(Cl)ccc2Cl)c1C(=O)O [Compound A26, 1-(2,5-dichlorobenzyl)-4-isopropyl-2-(pyridin-3-yl)-1H-imidazole-5-carboxylic acid]
[1]
  Inhibitory Activity (IC50 of uric acid transport inhibition): * * *
[2]
  uricosuric effect (uric acid excretion rate): excellent uricosuric effect was confirmed

## Cc1cncc(-c2nc(C)c(C(=O)O)n2Cc2cc(Cl)ccc2Cl)c1 [Compound A156, 1-(2,5-dichlorobenzyl)-4-methyl-2-(5-methylpyridin-3-yl)-1H-imidazole-5-carboxylic acid]
[1]
  Inhibitory Activity (IC50 of uric acid transport inhibition): * * *
[2]
  uricosuric effect (uric acid excretion rate): excellent uricosuric effect was confirmed

## O=C(O)c1ccc(-c2cccnc2)n1Cc1cc(Cl)ccc1Cl [Compound B11, 1-(2,5-dichlorobenzyl)-2-(pyridin-3-yl)-1H-pyrrole-5-carboxylic acid]
[1]
  Inhibitory Activity (IC50 of uric acid transport inhibition): * * *
[2]
  uricosuric effect (uric acid excretion rate): excellent uricosuric effect was confirmed

## O=C(O)c1c(C2CC2)nc(-c2cccnc2)n1Cc1cc(Cl)ccc1Cl [Compound A15, 4-cyclopropyl-1-(2,5-dichlorobenzyl)-2-(pyridin-3-yl)-1H-imidazole-5-carboxylic acid]
[1]
  Inhibitory Activity (IC50 of uric acid transport inhibition): * * *
[2]
  uricosuric effect (uric acid excretion rate): excellent uricosuric effect was confirmed

## Cc1nc(-c2cncc(Cl)c2)n(Cc2cc(Cl)ccc2Cl)c1C(=O)O [Compound A135, 2-(5-chloropyridin-3-yl)-1-(2,5-dichlorobenzyl)-4-methyl-1H-imidazole-5-carboxylic acid]
[1]
  Inhibitory Activity (IC50 of uric acid transport inhibition): * * *
[2]
  uricosuric effect (uric acid excretion rate): excellent uricosuric effect was confirmed

## Cc1nc(-c2cccnc2)n(Cc2cc(Cl)ccc2Cl)c1C(=O)O [Compound A13, 1-(2,5-dichlorobenzyl)-2-(pyridin-3-yl)-4-methyl-1H-imidazole-5-carboxylic acid]
[1]
  Inhibitory Activity (IC50 of uric acid transport inhibition): * * *
[2]
  uricosuric effect (uric acid excretion rate): excellent uricosuric effect was confirmed

## Cc1nc(-c2cccnc2)n(Cc2cccc3ccsc23)c1C(=O)O [Compound A81, 1-(benzo[b]thiophen-7-ylmethyl)-4-methyl-2-(pyridin-3-yl)-1H-imidazole-5-carboxylic acid]
[1]
  Inhibitory Activity (IC50 of uric acid transport inhibition): * *
[2]
  uricosuric effect (uric acid excretion rate): excellent uricosuric effect was confirmed

## O=C(O)c1c(C(F)(F)F)nc(-c2cncc(Cl)c2)n1Cc1cc(Cl)ccc1Cl [Compound A137, 2-(5-chloropyridin-3-yl)-1-(2,5-dichlorobenzyl)-4-(trifluoromethyl)-1H-imidazole-5-carboxylic acid]
[1]
  Inhibitory Activity (IC50 of uric acid transport inhibition): * * *
[2]
  uricosuric effect (uric acid excretion rate): excellent uricosuric effect was confirmed

## Cc1ccc(C)c(Cn2c(-c3cccnc3)nc(C)c2C(=O)O)c1 [Compound A1, 1-(2,5-dimehylbenzyl)-4-methyl-2-(pyridin-3-yl)-1H-imidazole-5-carboxylic acid]
[1]
  Inhibitory Activity (IC50 of uric acid transport inhibition): * *
[2]
  uricosuric effect (uric acid excretion rate): excellent uricosuric effect was confirmed

## Cc1nc(-c2cncc(Cl)c2)n(Cc2cccc3ccccc23)c1C(=O)O [Compound A121, 2-(5-chloropyridin-3-yl)-4-methyl-1-(naphthalen-1-ylmethyl)-1H-imidazole-5-carboxylic acid]
[1]
  Inhibitory Activity (IC50 of uric acid transport inhibition): * *
[2]
  uricosuric effect (uric acid excretion rate): excellent uricosuric effect was confirmed

## Cc1nc(-c2cncc(C(F)(F)F)c2)n(Cc2cc(Cl)ccc2Cl)c1C(=O)O [Compound A139, 1-(2,5-dichlorobenzyl)-4-methyl-2-(5-(trifluoromethyl)pyridin-3-yl)-1H-imidazole-5-carboxylic acid]
[1]
  Inhibitory Activity (IC50 of uric acid transport inhibition): * * *
[2]
  uricosuric effect (uric acid excretion rate): excellent uricosuric effect was confirmed

## Cc1nc(-c2cccnc2)n(Cc2csc3cccc(Cl)c23)c1C(=O)O [Compound A7, 1-((4-chlorobenzo[b]thiophen-3-yl)methyl)-4-methyl-2-(pyridin-3-yl)-1H-imidazole-5-carboxylic acid]
[1]
  Inhibitory Activity (IC50 of uric acid transport inhibition): * *
[2]
  uricosuric effect (uric acid excretion rate): excellent uricosuric effect was confirmed

## Cc1nc(-c2cccnc2)n(Cc2cccc3ccccc23)c1C(=O)O [Compound A2, 4-methyl-1-(naphthalen-1-ylmethyl)-2-(pyridin-3-yl)-1H-imidazole-5-carboxylic acid]
[1]
  Inhibitory Activity (IC50 of uric acid transport inhibition): * *
[2]
  uricosuric effect (uric acid excretion rate): excellent uricosuric effect was confirmed

## CS(=O)(=O)NC(=O)c1ccc(-c2cncc(Cl)c2)n1Cc1cc(Cl)ccc1Cl [Compound B29, 2-(5-chloropyridin-3-yl)-1-(2,5-dichlorobenzyl)-N-(methylsulfonyl)-1H-pyrrole-5-carboxamide]
[1]
  Inhibitory Activity (IC50 of uric acid transport inhibition): * * *

## O=C(NS(=O)(=O)C1CC1)c1ccc(-c2cccnc2)n1Cc1cc(Cl)ccc1Cl [Compound B31, N-(cyclopropylsulfonyl)-1-(2,5-dichlorobenzyl)-2-(pyridin-3-yl)-1H-pyrrole-5-carboxamide]
[1]
  Inhibitory Activity (IC50 of uric acid transport inhibition): * * *

## CC(=O)c1nc(-c2cncc(Cl)c2)n(Cc2cc(Cl)ccc2Cl)c1C(=O)O [Compound A218, 4-acetyl-2-(5-chloropyridin-3-yl)-1-(2,5-dichlorobenzyl)-1H-imidazole-5-carboxylic acid]
[1]
  Inhibitory Activity (IC50 of uric acid transport inhibition): * * *
